Measured values reported in PubChem BioAssay AID1745844 (Carcinogenic Potency Database (CPDB), 2022).
Calls of active or inactive are those of the source. The rule behind the calls is not given here.

System: rodent lifetime carcinogenesis bioassay, tumor incidence TD50
Experiment: carcinogenic potency in animals, long-term in vivo studies, CPDB compilation (AID 1745844)

Compound: Clc1ccc(C(c2ccc(Cl)cc2)C(Cl)Cl)cc1
- TD50 (mouse, strain B6AKF1, females, oral dosing, site: any site (literature study), lesion: several types, types named in the paper, dosed 76 weeks, study length 76 weeks): 37.4 mg/kg/day
- TD50 (mouse, strain B6AKF1, females, oral dosing, site: lung, lesion: adenoma, dosed 76 weeks, study length 76 weeks): 73 mg/kg/day
- TD50 (mouse, strain B6AKF1, males, oral dosing, site: any site (literature study), lesion: several types, types named in the paper, dosed 76 weeks, study length 76 weeks): 49 mg/kg/day
- TD50 (mouse, strain B6AKF1, males, oral dosing, site: lung, lesion: adenoma, dosed 76 weeks, study length 76 weeks): 82.9 mg/kg/day
- TD50 (mouse, strain B6C3F1, females, in feed, site: any site (literature study), lesion: several types, types named in the paper, dosed 78 weeks, study length 90 weeks): 108 mg/kg/day (inactive)
- TD50 (mouse, strain B6C3F1, females, in feed, site: liver, lesion: hepatocellular adenoma + hepatocellular carcinoma + neoplastic nodule, dosed 78 weeks, study length 90 weeks): 493 mg/kg/day
- TD50 (mouse, strain B6C3F1, females, oral dosing, site: any site (literature study), lesion: several types, types named in the paper, dosed 76 weeks, study length 76 weeks): 250 mg/kg/day
- TD50 (mouse, strain B6C3F1, females, oral dosing, site: lung, lesion: adenoma, dosed 76 weeks, study length 76 weeks): 250 mg/kg/day
- TD50 (mouse, strain B6C3F1, males, in feed, site: any site (literature study), lesion: several types, types named in the paper, dosed 78 weeks, study length 90 weeks): 997 mg/kg/day (inactive)
- TD50 (mouse, strain B6C3F1, males, in feed, site: liver, lesion: hepatocellular adenoma + hepatocellular carcinoma + neoplastic nodule, dosed 78 weeks, study length 90 weeks): 116 mg/kg/day
- TD50 (mouse, strain B6C3F1, males, oral dosing, site: any site (literature study), lesion: several types, types named in the paper, dosed 76 weeks, study length 76 weeks): 34.8 mg/kg/day
- TD50 (mouse, strain B6C3F1, males, oral dosing, site: liver, lesion: hepatoma, dosed 76 weeks, study length 76 weeks): 43.3 mg/kg/day
- TD50 (mouse, strain B6C3F1, males, oral dosing, site: lung, lesion: adenoma, dosed 76 weeks, study length 76 weeks): 120 mg/kg/day
- TD50 (mouse, strain CF-1, females, in feed, site: any site (literature study), lesion: several types, types named in the paper, dosed 123 weeks, study length 123 weeks): 67.1 mg/kg/day
- TD50 (mouse, strain CF-1, females, in feed, site: liver, lesion: hepatoma, dosed 123 weeks, study length 123 weeks): 4830 mg/kg/day (inactive)
- TD50 (mouse, strain CF-1, females, in feed, site: lung, lesion: several types, types named in the paper, dosed 123 weeks, study length 123 weeks): 39.9 mg/kg/day
- TD50 (mouse, strain CF-1, males, in feed, site: any site (literature study), lesion: several types, types named in the paper, dosed 123 weeks, study length 123 weeks): 33.2 mg/kg/day
- TD50 (mouse, strain CF-1, males, in feed, site: liver, lesion: hepatoma, dosed 123 weeks, study length 123 weeks): 86.8 mg/kg/day
- TD50 (mouse, strain CF-1, males, in feed, site: lung, lesion: several types, types named in the paper, dosed 123 weeks, study length 123 weeks): 24.9 mg/kg/day
- carcinogen call (rat, strain Osborne-Mendel, females, in feed, site: any site (literature study), lesion: several types, types named in the paper, dosed 78 weeks, study length 111 weeks): negative (inactive)
- TD50 (rat, strain Osborne-Mendel, females, in feed, site: liver, lesion: hepatocellular adenoma + hepatocellular carcinoma + neoplastic nodule, dosed 78 weeks, study length 111 weeks): 2080 mg/kg/day
- TD50 (rat, strain Osborne-Mendel, males, in feed, site: any site (literature study), lesion: several types, types named in the paper, dosed 78 weeks, study length 111 weeks): 82.6 mg/kg/day
- TD50 (rat, strain Osborne-Mendel, males, in feed, site: thyroid gland, lesion: follicular-cell adenoma + follicular-cell carcinoma, dosed 78 weeks, study length 111 weeks): 75.8 mg/kg/day

Compound: Nc1ccc(N=Nc2ccccc2)c(N)n1
- TD50 (mouse, strain B6C3F1, females, in feed, site: any site (literature study), lesion: several types, types named in the paper, dosed 80 weeks, study length 105 weeks): 89.7 mg/kg/day
- TD50 (mouse, strain B6C3F1, females, in feed, site: liver, lesion: hepatocellular adenoma + hepatocellular carcinoma + neoplastic nodule, dosed 80 weeks, study length 105 weeks): 71.1 mg/kg/day
- TD50 (mouse, strain B6C3F1, females, in feed, site: liver, lesion: hepatocellular adenoma + hepatocellular carcinoma, dosed 80 weeks, study length 105 weeks): 71.1 mg/kg/day
- TD50 (mouse, strain B6C3F1, females, in feed, site: liver, lesion: hepatocellular carcinoma, dosed 80 weeks, study length 105 weeks): 132 mg/kg/day
- TD50 (mouse, strain B6C3F1, females, in feed, site: lung, lesion: alveolar/bronchiolar adenoma + alveolar/bronchiolar carcinoma, dosed 80 weeks, study length 105 weeks): 4650 mg/kg/day
- TD50 (mouse, strain B6C3F1, males, in feed, site: any site (literature study), lesion: several types, types named in the paper, dosed 80 weeks, study length 105 weeks): 496 mg/kg/day (inactive)
- TD50 (mouse, strain B6C3F1, males, in feed, site: liver, lesion: hepatocellular adenoma + hepatocellular carcinoma + neoplastic nodule, dosed 80 weeks, study length 105 weeks): 811 mg/kg/day
- TD50 (mouse, strain B6C3F1, males, in feed, site: lung, lesion: alveolar/bronchiolar adenoma + alveolar/bronchiolar carcinoma, dosed 80 weeks, study length 105 weeks): 1300 mg/kg/day
- TD50 (rat, strain Fischer 344, females, in feed, site: colon, lesion: adenocarcinoma, NOS, dosed 78 weeks, study length 105 weeks): 687 mg/kg/day
- TD50 (rat, strain Fischer 344, males, in feed, site: colon + rectum, lesion: adenocarcinoma, NOS + adenoma, NOS, dosed 78 weeks, study length 104 weeks): 303 mg/kg/day
- TD50 (rat, strain Fischer 344, males, in feed, site: colon + rectum, lesion: adenocarcinoma, NOS, dosed 78 weeks, study length 104 weeks): 333 mg/kg/day
- TD50 (rat, strain Fischer 344, males, in feed, site: liver, lesion: hepatocellular adenoma + hepatocellular carcinoma + neoplastic nodule, dosed 78 weeks, study length 104 weeks): 2170 mg/kg/day

Compound: CCC1CO1 (stereo not drawn)
- TD50 (mouse, strain B6C3F1, females, inhaled, site: any site (literature study), lesion: several types, types named in the paper, dosed 102 weeks, study length 104 weeks): 141 mg/kg/day (inactive)
- TD50 (mouse, strain B6C3F1, females, inhaled, site: liver, lesion: hepatocellular adenoma + hepatocellular carcinoma + neoplastic nodule, dosed 102 weeks, study length 104 weeks): 445 mg/kg/day
- TD50 (mouse, strain B6C3F1, females, inhaled, site: lung, lesion: alveolar/bronchiolar adenoma + alveolar/bronchiolar carcinoma, dosed 102 weeks, study length 104 weeks): 834 mg/kg/day
- TD50 (mouse, strain B6C3F1, males, inhaled, site: any site (literature study), lesion: several types, types named in the paper, dosed 102 weeks, study length 104 weeks): 2470 mg/kg/day (inactive)
- TD50 (mouse, strain B6C3F1, males, inhaled, site: liver, lesion: hepatocellular adenoma + hepatocellular carcinoma + neoplastic nodule, dosed 102 weeks, study length 104 weeks): 8600 mg/kg/day
- TD50 (rat, strain Fischer 344, females, inhaled, site: any site (literature study), lesion: several types, types named in the paper, dosed 103 weeks, study length 105 weeks): 78 mg/kg/day
- TD50 (rat, strain Fischer 344, females, inhaled, site: nasal cavity, lesion: papillary adenoma, dosed 103 weeks, study length 105 weeks): 1730 mg/kg/day
- TD50 (rat, strain Fischer 344, females, inhaled, site: ovary, lesion: granulosa-cell carcinoma + granulosa-cell tumor + thecoma, dosed 103 weeks, study length 105 weeks): 545 mg/kg/day
- TD50 (rat, strain Fischer 344, females, inhaled, site: pituitary gland, anterior, lesion: adenoma, NOS, dosed 103 weeks, study length 105 weeks): 83.8 mg/kg/day
- TD50 (rat, strain Fischer 344, females, inhaled, site: thyroid gland, lesion: follicular-cell adenoma + follicular-cell carcinoma, dosed 103 weeks, study length 105 weeks): 509 mg/kg/day
- TD50 (rat, strain Fischer 344, males, inhaled, site: any site (literature study), lesion: several types, types named in the paper, dosed 103 weeks, study length 105 weeks): 79.6 mg/kg/day
- TD50 (rat, strain Fischer 344, males, inhaled, site: liver, lesion: hepatocellular adenoma + hepatocellular carcinoma + neoplastic nodule, dosed 103 weeks, study length 105 weeks): 622 mg/kg/day
- TD50 (rat, strain Fischer 344, males, inhaled, site: lung + nasal cavity, lesion: alveolar/bronchiolar adenoma + alveolar/bronchiolar carcinoma + papillary adenoma, dosed 103 weeks, study length 105 weeks): 106 mg/kg/day
- TD50 (rat, strain Fischer 344, males, inhaled, site: lung, lesion: alveolar/bronchiolar adenoma + alveolar/bronchiolar carcinoma, dosed 103 weeks, study length 105 weeks): 220 mg/kg/day
- TD50 (rat, strain Fischer 344, males, inhaled, site: lung, lesion: alveolar/bronchiolar carcinoma, dosed 103 weeks, study length 105 weeks): 314 mg/kg/day
- TD50 (rat, strain Fischer 344, males, inhaled, site: multiple organs + spleen, lesion: mononuclear-cell leukemia, dosed 103 weeks, study length 105 weeks): 30.7 mg/kg/day
- TD50 (rat, strain Fischer 344, males, inhaled, site: nasal cavity, lesion: papillary adenoma, dosed 103 weeks, study length 105 weeks): 220 mg/kg/day

Compound: CCCC/C=N/N(C)C=O
- TD50 (mouse, strain Swiss albino, females, by gavage, site: liver, lesion: hepatoma, benign, dosed 52 weeks, study length 144 weeks): 11.8 mg/kg/day
- TD50 (mouse, strain Swiss albino, females, by gavage, site: lung, lesion: adenocarcinoma, dosed 52 weeks, study length 144 weeks): 9.29 mg/kg/day
- TD50 (mouse, strain Swiss albino, females, by gavage, site: lung, lesion: adenoma, dosed 52 weeks, study length 144 weeks): 5.64 mg/kg/day
- TD50 (mouse, strain Swiss albino, females, by gavage, site: lung, lesion: several types, types named in the paper, dosed 52 weeks, study length 144 weeks): 3.12 mg/kg/day
- TD50 (mouse, strain Swiss albino, males, by gavage, site: liver, lesion: hepatoma, dosed 52 weeks, study length 134 weeks): 33.1 mg/kg/day
- TD50 (mouse, strain Swiss albino, males, by gavage, site: lung, lesion: adenocarcinoma, dosed 52 weeks, study length 134 weeks): 11 mg/kg/day
- TD50 (mouse, strain Swiss albino, males, by gavage, site: lung, lesion: adenoma, dosed 52 weeks, study length 134 weeks): 5.52 mg/kg/day
- TD50 (mouse, strain Swiss albino, males, by gavage, site: lung, lesion: several types, types named in the paper, dosed 52 weeks, study length 134 weeks): 3.79 mg/kg/day
- TD50 (mouse, strain Swiss albino, males, by gavage, site: preputial gland, lesion: several types, types named in the paper, dosed 52 weeks, study length 134 weeks): 16.2 mg/kg/day
- TD50 (mouse, strain Swiss albino, males, by gavage, site: preputial gland, lesion: squamous-cell carcinoma, dosed 52 weeks, study length 134 weeks): 19.8 mg/kg/day
- TD50 (mouse, strain Swiss albino, males, by gavage, site: preputial gland, lesion: squamous-cell papilloma, dosed 52 weeks, study length 134 weeks): 106 mg/kg/day

Compound: c1ccc2c(c1)ccc1cc3c(ccc4ccccc43)cc12
- TD50 (mouse, strain DBA/2, males, in drinking water, site: lung, lesion: alveolar-cell carcinoma, dosed 60 weeks, study length 60 weeks): 5.88 mg/kg/day

Compound: Cc1ccccc1S(N)(=O)=O
- TD50 (rat, strain Charles River CD (Sprague-Dawley), females, in feed, site: liver, lesion: Kupffer-cell sarcoma, dosed 142 weeks, study length 142 weeks): 8520 mg/kg/day
- TD50 (rat, strain Charles River CD (Sprague-Dawley), females, in feed, site: liver, lesion: neoplastic nodule, dosed 142 weeks, study length 142 weeks): 21700 mg/kg/day
- TD50 (rat, strain Charles River CD (Sprague-Dawley), females, in feed, site: mammary gland, lesion: adenocarcinoma, dosed 142 weeks, study length 142 weeks): 12.2 mg/kg/day
- TD50 (rat, strain Charles River CD (Sprague-Dawley), males, in feed, site: liver, lesion: angiosarcoma, dosed 142 weeks, study length 142 weeks): 17200 mg/kg/day
- TD50 (rat, strain Charles River CD (Sprague-Dawley), males, in feed, site: liver, lesion: neoplastic nodule, dosed 142 weeks, study length 142 weeks): 35900 mg/kg/day
- TD50 (rat, strain Sprague-Dawley, both sexes, in feed, site: all sites, lesion: leukemia, dosed 133 weeks, study length 142 weeks): 375 mg/kg/day
- TD50 (rat, strain Sprague-Dawley, both sexes, in feed, site: any site (literature study), lesion: malignant tumor, dosed 133 weeks, study length 142 weeks): 13300 mg/kg/day
- TD50 (rat, strain Sprague-Dawley, both sexes, in feed, site: urinary bladder, lesion: several types, types named in the paper, dosed 133 weeks, study length 142 weeks): 3960 mg/kg/day
- carcinogen call (rat, strain Wistar, females, in drinking water, site: liver, lesion: hepatocellular carcinoma, dosed 102 weeks, study length 102 weeks): negative (inactive)
